The test system of test [1] is AMPK. Put plainly: AMPK activation assay (western blot phospho-AMPK Thr172) in 3T3-L1. Type of test: cell-based, mouse. As to conditions: 3T3-L1 cells, 30 min treatment. The procedure:
(§1) Effects of compounds on AMPK activation were analyzed in mouse muscle cell C2C12, mouse fibroblast 3T3-L1 and human hepatocyte Hep G2. Those cell lines were cultured in high-glucose Dulbecco's modified Eagle's medium (DMEM) containing 10% fetal bovine serum (FBS), 4 mM L-glutamine, 2 mM sodium pyruvate and 1% penicillin/streptomycin (Invitrogen GibcoBRL, Carlsbad, Calif., USA) at 37° C. under 5% CO2. Cells were plated at 3×10^5 per well (6-well plate). 24 h after plating, cells were treated with indicated compounds for 30 min followed by cell lysis and western blot analysis. Equal amount of protein were separated by SDS-PAGE and then electroblotted on to PVDF membranes. Membranes were blocked with 3% BSA in PBS for 60 min and incubated with anti-phospho-AMPK (Thr172) antibody (1:2,000, Cell signaling), anti-AMPK antibody (1:2,000, Cell signaling), anti-Glut4 antibody (1:1,000, Millipore) or anti-actin antibody (1:5,000; Chemicon International) at 4° C. overnight followed by the corresponding secondary antibody for 1 h at room temperature (RT). Immunoreactive bands were detected by enhanced chemiluminescence (ECL; Pierce, Rockford, Ill., USA) and recorded using Kodakfilm (Rochester, N.Y., USA). The detected signals were scanned and then quantified by using TotalLab Quant software (TotalLab).
In general terms: Immunoblotting shows a protein as a band on a membrane.

Test [2] has as its system AMPK. Put plainly: AMPK activation assay (western blot phospho-AMPK Thr172) in C2C12. Type of test: cell-based, mouse. Particulars: C2C12 cells, 30 min treatment. The procedure:
as §1

In test [3] the test system is AMPK. Description: AMPK activation assay (western blot phospho-AMPK Thr172) in Hep G2. Type of test: cell-based, human. Particulars: Hep G2 cells, 30 min treatment. The procedure: as §1

Turning to `Nc1nc(N)c2[nH]cnc2n1` [2,6-diaminopurine], the “AMPK activation (% to control) 3T3-L1” value in the test with AMPK [1] (1 microM) is reported as 108 % to control; in the test with AMPK [1] (10 microM), 149 % to control; with AMPK [1] (100 microM), 288 % to control; with AMPK [1] (200 microM) it was 335 % to control. The “AMPK activation (% to control) C2C12” value is 116 % to control with AMPK [2] (1 microM), 181 % to control in the test on AMPK [2] (10 microM), 281 % to control in the test on AMPK [2] (100 microM) and 381 % to control in the test with AMPK [2] (200 microM). For the same compound, the “AMPK activation (% to control) Hep G2” value is 113 % to control in the test with AMPK [3] (1 microM), 155 % to control in the test with AMPK [3] (10 microM), 274 % to control in the test with AMPK [3] (100 microM) and 397 % to control in the test with AMPK [3] (200 microM).

On to `Oc1nc(O)c2[nH]cnc2n1` [2,6-dihydroxypurine], for which the “AMPK activation (% to control) 3T3-L1” value with AMPK [1] (1 microM) was 109 % to control; in the test on AMPK [1] (10 microM) it was 132 % to control; in the test on AMPK [1] (100 microM), 205 % to control; in the test on AMPK [1] (200 microM) it was 361 % to control. Moreover, the “AMPK activation (% to control) C2C12” value in the test with AMPK [2] (1 microM) is given as 105 % to control; in the test with AMPK [2] (10 microM) it was 115 % to control; in the test on AMPK [2] (100 microM), 231 % to control; with AMPK [2] (200 microM) it was 347 % to control. For the same compound, the “AMPK activation (% to control) Hep G2” value in the test on AMPK [3] (1 microM) is on record as 114 % to control; in the test on AMPK [3] (10 microM), 139 % to control; in the test with AMPK [3] (100 microM) it was 198 % to control; with AMPK [3] (200 microM), 302 % to control.

Take `Sc1nc(S)c2[nH]cnc2n1` [2,6-dimercaptopurine]: the “AMPK activation (% to control) 3T3-L1” value in the test on AMPK [1] (1 microM) is given as 102 % to control; in the test on AMPK [1] (10 microM) it was 98 % to control; with AMPK [1] (100 microM), 178 % to control; with AMPK [1] (200 microM), 260 % to control. The “AMPK activation (% to control) C2C12” value in the test with AMPK [2] (1 microM) was 104 % to control; in the test with AMPK [2] (10 microM), 117 % to control; with AMPK [2] (100 microM), 215 % to control; with AMPK [2] (200 microM), 298 % to control. Besides, the “AMPK activation (% to control) Hep G2” value is 110 % to control with AMPK [3] (1 microM), 133 % to control in the test with AMPK [3] (10 microM), 244 % to control in the test with AMPK [3] (100 microM) and 366 % to control with AMPK [3] (200 microM).

With `COc1cccc(CNc2nc(N)nc3nc[nH]c23)c1OC` [2-amino-6-(2,3-dimethoxybenzylamino)purine], the “AMPK activation (% to control) 3T3-L1” value with AMPK [1] (1 microM) is listed as 118 % to control; with AMPK [1] (10 microM) it was 156 % to control; with AMPK [1] (100 microM) it was 250 % to control; in the test with AMPK [1] (200 microM), 347 % to control. Moreover, the “AMPK activation (% to control) C2C12” value in the test with AMPK [2] (1 microM) is 106 % to control; in the test on AMPK [2] (10 microM), 144 % to control; in the test with AMPK [2] (100 microM), 263 % to control; with AMPK [2] (200 microM), 334 % to control. Moreover, the “AMPK activation (% to control) Hep G2” value in the test with AMPK [3] (1 microM) is given as 115 % to control; in the test with AMPK [3] (10 microM) it was 127 % to control; in the test with AMPK [3] (100 microM) it was 229 % to control; in the test on AMPK [3] (200 microM) it was 318 % to control.

Regarding `COc1cc(CNc2nc(C)nc3nc[nH]c23)cc(OC)c1OC` [2-methyl-6-(3,4,5-trimethoxybenzylamino)purine], the “AMPK activation (% to control) 3T3-L1” value with AMPK [1] (1 microM) is on record as 115 % to control; in the test with AMPK [1] (10 microM) it was 141 % to control; in the test on AMPK [1] (100 microM), 254 % to control; in the test on AMPK [1] (200 microM), 346 % to control. Further, the “AMPK activation (% to control) C2C12” value in the test with AMPK [2] (1 microM) is on record as 106 % to control; in the test on AMPK [2] (10 microM) it was 117 % to control; with AMPK [2] (100 microM) it was 211 % to control; in the test on AMPK [2] (200 microM), 361 % to control. In addition, the “AMPK activation (% to control) Hep G2” value is given as 112 % to control with AMPK [3] (1 microM), 168 % to control with AMPK [3] (10 microM), 270 % to control in the test on AMPK [3] (100 microM) and 359 % to control with AMPK [3] (200 microM).

`O=C1CCNC(=O)N1` [5,6-dihydrouracil]: the “AMPK activation (% to control) 3T3-L1” value in the test with AMPK [1] (1 microM) is on record as 116 % to control; with AMPK [1] (10 microM) it was 159 % to control; in the test with AMPK [1] (100 microM), 268 % to control; in the test with AMPK [1] (200 microM), 341 % to control. The “AMPK activation (% to control) C2C12” value in the test on AMPK [2] (1 microM) is 108 % to control; with AMPK [2] (10 microM), 114 % to control; in the test on AMPK [2] (100 microM), 207 % to control; in the test on AMPK [2] (200 microM), 326 % to control. In addition, the “AMPK activation (% to control) Hep G2” value in the test with AMPK [3] (1 microM) is 120 % to control; with AMPK [3] (10 microM), 167 % to control; in the test on AMPK [3] (100 microM), 274 % to control; in the test with AMPK [3] (200 microM), 360 % to control.

In the case of `Clc1cccc(Nc2ncnc3nc[nH]c23)c1` [6-(3-chloroanilino)purine], the “AMPK activation (% to control) 3T3-L1” value in the test on AMPK [1] (1 microM) is recorded as 116 % to control; in the test on AMPK [1] (10 microM), 130 % to control; in the test with AMPK [1] (100 microM), 217 % to control; in the test with AMPK [1] (200 microM), 301 % to control. Also, the “AMPK activation (% to control) C2C12” value with AMPK [2] (1 microM) is given as 108 % to control; in the test on AMPK [2] (10 microM), 118 % to control; with AMPK [2] (100 microM) it was 186 % to control; in the test with AMPK [2] (200 microM), 307 % to control. Besides, the “AMPK activation (% to control) Hep G2” value with AMPK [3] (1 microM) is 106 % to control; in the test on AMPK [3] (10 microM), 109 % to control; in the test on AMPK [3] (100 microM) it was 212 % to control; in the test with AMPK [3] (200 microM), 319 % to control.

As for `Nc1cc[nH]c(=O)n1` [Cytosine], the “AMPK activation (% to control) 3T3-L1” value is listed as 117 % to control in the test with AMPK [1] (1 microM), 127 % to control in the test with AMPK [1] (10 microM) and 310 % to control with AMPK [1] (200 microM). The “AMPK activation (% to control) C2C12” value in the test with AMPK [2] (1 microM) is given as 119 % to control; in the test on AMPK [2] (10 microM), 158 % to control; in the test with AMPK [2] (100 microM) it was 253 % to control; in the test on AMPK [2] (200 microM) it was 361 % to control. The “AMPK activation (% to control) Hep G2” value with AMPK [3] (1 microM) was 117 % to control; with AMPK [3] (10 microM), 164 % to control; in the test on AMPK [3] (100 microM), 281 % to control; with AMPK [3] (200 microM), 359 % to control.

As to `CN(C)c1nc(O)c2[nH]cnc2n1` [Example 2-Dimethylamino-6-hydroxypurine, 2-Dimethylamino-6-hydroxypurine], the “AMPK activation (% to control) 3T3-L1” value was 106 % to control in the test with AMPK [1] (1 microM), 108 % to control in the test on AMPK [1] (10 microM), 205 % to control in the test on AMPK [1] (100 microM) and 264 % to control in the test with AMPK [1] (200 microM). The “AMPK activation (% to control) C2C12” value with AMPK [2] (1 microM) was 105 % to control; in the test with AMPK [2] (10 microM), 111 % to control; in the test with AMPK [2] (100 microM), 229 % to control; in the test with AMPK [2] (200 microM), 298 % to control. Further, the “AMPK activation (% to control) Hep G2” value in the test with AMPK [3] (1 microM) is given as 117 % to control; with AMPK [3] (10 microM), 132 % to control; in the test on AMPK [3] (100 microM) it was 185 % to control; in the test on AMPK [3] (200 microM) it was 218 % to control.

As for `CC(C)CCNc1nc(N)nc2nc[nH]c12` [Example 2-amino-6-isopentylaminopurine, 2-amino-6-isopentylaminopurine], the “AMPK activation (% to control) 3T3-L1” value was 110 % to control in the test with AMPK [1] (1 microM), 169 % to control in the test on AMPK [1] (10 microM), 271 % to control in the test on AMPK [1] (100 microM) and 361 % to control with AMPK [1] (200 microM). The “AMPK activation (% to control) C2C12” value with AMPK [2] (1 microM) was 104 % to control; in the test on AMPK [2] (10 microM), 114 % to control; in the test with AMPK [2] (100 microM), 238 % to control; in the test with AMPK [2] (200 microM) it was 305 % to control. For the same compound, the “AMPK activation (% to control) Hep G2” value with AMPK [3] (1 microM) is listed as 117 % to control; in the test with AMPK [3] (10 microM), 174 % to control; in the test on AMPK [3] (100 microM) it was 250 % to control; with AMPK [3] (200 microM), 341 % to control.

The values above are taken from US9938279B2, “Method for treating disease or condition susceptible to amelioration by AMPK activators and compounds of formula which are useful to activate AMP-activated protein kinase (AMPK)” (ENERGENESIS BIOMEDICAL CO., LTD, priority 2013, dated 2018).
